Reference: US20100081162A1, “METHOD OF EVALUATING ANTIWRINKLE SUBSTANCE AND METHOD OF ASSESSING THE SKIN” (POLA CHEMICAL INDUSTRIES INC., priority 2007, published 2010)

Columns and labels:
collagen fiber bundles = test: Tightness in collagen fiber bundles in collagen gel with NHDF in the presence of heparin (SEM); format: cell-based, human
β1 protein gene (ITGB1) = test: Effect of farrerol on expression amount of β1 protein gene (real-time PCR); format: cell-based; settings: normal human fibroblasts, 5 days
Procedure: (§1) In the normal human fibroblasts cultivated in a culture solution with or without farrerol for 5 days, the expression amounts of the integrin gene and the type-I collagen gene as a main component of dermal collagen were evaluated by the real-time PCR. The procedure followed the procedure in Example 1 except for the used primer. It should be noted that the following QuantiTect (registered trademark) Primer Assays was used as a primer. […] Specifically, the expression amount of the β1 protein gene increased by a factor of about 1.9, the expression amount of the α2 protein gene increased by a factor of about 2.6, and the expression amount of the α5 protein gene increased by a factor of about 1.7.

α2 protein gene (ITGA2) = test: Effect of farrerol on expression amount of α2 protein gene (real-time PCR); format: cell-based; settings: normal human fibroblasts, 5 days
Procedure: as §1

integrin gene = test: Effect of farrerol on expression amount of integrin gene (real-time PCR); format: cell-based; settings: normal human fibroblasts, 5 days
Procedure: as §1

α5 protein gene (ITGA5) = test: Effect of farrerol on expression amount of α5 protein gene (real-time PCR); format: cell-based; settings: normal human fibroblasts, 5 days
Procedure: as §1

[1] = tested on: type-I collagen gene (COL1A1, COL1A2); test: Effect of farrerol on expression amount of type-I collagen gene (real-time PCR); format: cell-based; settings: normal human fibroblasts, 5 days
Procedure: as §1

Molecule | effect on tightness in collagen fiber bundles (collagen fiber bundles; heparin alone) | effect on inhibition of tightness of collagen fiber bundles due to heparin (collagen fiber bundles; NHDF in collagen gel, 0.1% or 1% heparin, farrerol 10^−6% or 10^−7% at final, 5 days, SEM) | increase in the expression amount of the β1 protein gene (factor) (β1 protein gene (ITGB1)) | increase in the expression amount of the α2 protein gene (factor) (α2 protein gene (ITGA2)) | increase in the expression amount of the integrin gene (factor, with vs without farrerol) (integrin gene) [factor] | increase in the expression amount of the α5 protein gene (factor) (α5 protein gene (ITGA5)) | expression amount of the type-I collagen gene [1]
Heparin | inhibitory effect |  |  |  |  |  | 
Cc1c(O)c(C)c2c(c1O)C(=O)C[C@@H](c1ccc(O)cc1)O2 [farrerol] |  | suppressed inhibition of tightness of collagen fiber bundles due to heparin | about 1.9 factor | about 2.6 factor | ≥ 1.5 | about 1.7 factor | not significantly increased
